Results taken from US12433964B2, “Antiviral and antibacterial disinfection aero-solution using edible food dyes” (Purdue Research Foundation, priority 2020, dated 2025).

Assay: Lifetime (photobleaching) of photosensitizers by fluorescent emission monitoring
Assay type: physicochemical
Conditions: for complete photobleaching after (lifetime): 5 μM aqueous solution, green laser 532 nm 6.3 mW cm^−2 / white LED 2400 lux; for lasting time of singlet oxygen generation: estimated for standard illumination level of 500 lux
Experimental: To test the lifetime of photosensitizers, we monitored the fluorescent emission of Rose Bengal and Erythrosine, respectively. FIG. 10a is a graph of normalized intensity vs wavelength showing absorption and fluorescence for Rose Bengal and Erythrosine. 0.5-mL aqueous solutions of each photosensitizer were put into a cuvette and then the fluorescent spectrum was measured using a fiber bundle-coupled spectrometer (VS140 VIS-NIR; Horiba Jobin Yvon Inc., Edison, NJ, USA). […] Lifetime of Rose Bengal is longer than that of Erythrosine, showing complete photobleaching after 120 min (60 min for Erythrosine). Both are also activated by a white LED with 2400 lux. Considering that the standard illumination level of normal workstation spaces is 500 lux, the lasting time of singlet oxygen generation for Rose Bengal and Erythrosine can be estimated to be about 9.6 and 4.8 hours, respectively.

Compound	complete photobleaching after (lifetime) [min]	lasting time of singlet oxygen generation
O=C([O-])c1c(Cl)c(Cl)c(Cl)c(Cl)c1-c1c2cc(I)c(=O)c(I)c-2oc2c(I)c([O-])c(I)cc12.[Na+].[Na+] [FD&C RED No. 105, Rose Bengal]	120	about 9.6 hours
Erythrosine [FD&C RED No. 3]	60	~4.8 h
